Reference: patent US20140228279A1, “CATIONIC PEPTIDOPOLYSACCHARIDES WITH EXCELLENT BROAD- SPECTRUM ANTIMICROBIAL ACTIVITIES AND HIGH SELECTIVITY” (priority 2011, published 2014)
≈ marks a conversion by molar mass, not a printed value. Entries after “also recorded” stand apart in the source; their conditions may differ. Read-outs that look alike come from different tables or passages of the source.

Assays:
[1] = system: Escherichia coli (ATCC8739); details: comparator agents (#3A-#6E), previously reported; cited from earlier work
[2] = system: human red blood cells; details: cited from earlier work
[3] = system: Escherichia coli (ATCC8739); assay: Minimal inhibitory concentration (MIC), twofold broth dilution; assay type: cell-based; details: Gram-negative; lowest concentration inhibiting growth by more than 90%
Procedure: (§1) Bacteria cells were grown overnight at 37° C. in MH broth to a mid-log phase and diluted to 10^4 to 10^5 CFU ml^−1. A twofold dilution series of 100 μl product solution in MH broth (YM broth for the fungi C. albicans and F. solani) was made on 96-well microplate, followed by the addition of 100 μl bacterial suspension (10^4 to 10^5 CFU mL^−1). The plates were incubated at 37° C. for 18-24 h (28° C., 36-48 h for fungi), and the absorbance at 600 nm was measured with a microplate reader (BIO-RAD, US). Positive control was without product, and negative control was without bacteria/fungi inoculum. MICs were determined as the lowest concentration that inhibited cell growth by more than 90%.

[4] = system: Fusarium solani (ATCC36031); assay: as above; assay type: cell-based; details: fungi; lowest concentration inhibiting growth by more than 90%
Procedure: as §1

[5] = system: Staphylococcus aureus (ATCC6538); assay: as above; assay type: cell-based; details: Gram-positive; lowest concentration inhibiting growth by more than 90%
Procedure: as §1

[6] = system: Pseudomonas aeruginosa (ATCC9027); assay: as above; assay type: cell-based; details: Gram-negative; lowest concentration inhibiting growth by more than 90%
Procedure: as §1

[7] = system: Candida albicans (ATCC10231); assay: as above; assay type: cell-based; details: fungi; lowest concentration inhibiting growth by more than 90%
Procedure: as §1

[8] = system: the three bacteria (P. aeruginosa, E. coli, S. aureus); assay: MIC, summarised over the bacterial pathogens; assay type: cell-based; details: for MIC against the bacterial pathogens: lower bound over the three bacteria
Procedure: as §1

[9] = system: human red blood cells; assay: Hemolysis assay; assay type: cell-based; details: for HC50 (the concentration which is 50% hemolytic): human erythrocytes, 1 h at 37° C.
Procedure: Fresh human blood (5 ml) was collected from a healthy donor. Erythrocytes were separated by centrifugation at 1000 rpm for 10 min, washed three times with Tris buffer (10 mM Tris, 150 mM NaCl, pH 7.2) and diluted to final concentration (5%, v/v). 50 μl of antimicrobial solution at different concentrations mixed with 50 μl erythrocytes stock were added to a 96-well microplate and incubated for 1 h at 37° C. with 150 rpm shaking. The microplate were centrifuged at 1,000 rpm for 10 min. 80 μl aliquots of the supernatant were then transferred to a new 96-well microplate and diluted with another 80 μl of Tris buffer. Hemolysis was measured as the absorbance at 540 nm with a microplate reader (BIO-RAD, US). Complete hemolysis was determined in Tris buffer plus 0.1% Triton x-100 as positive control, while Tris buffer was used as negative control. The percentage of hemolysis (H) was calculated using the following equation: Hemolysis=[(Op−Ob)/(Ot−Ob)]×100%, where Op is the density for a given antimicrobial agent concentration, Ob is the density for the buffer, and Ot is the density for the Triton x-100 positive control.

[10] = system: all tested bacteria and fungi (P. aeruginosa, E. coli, S. aureus, C. albicans, F. solani); assay: MIC, summarised over all pathogens tested; assay type: cell-based; details: for MICs for all pathogens tested: range over Gram-negative, Gram-positive bacteria and fungi
Procedure: as §1

[11] = system: E. coli; assay: LIVE/DEAD bacterial viability assay; assay type: cell-based, Escherichia coli; details: at MIC concentration, 15 min at 37° C.
Procedure: LIVE/DEAD assay was carried out using CS-g-K16 with E. coli. […] After incubation the cells were collected by centrifugation and stained with BacLight bacterial viability kit L13152 (Invitrogen) for 30 min at room temperature. The cells were then imaged with fluorescence microscopy (Carl Zeiss, Germany).

[12] = system: SMCs and E. coli co-culture; assay: Co-culture of bacteria and mammalian cells; assay type: cell-based; details: 100 μg ml^−1, 6 h after inoculation of 1×10^5 E. coli
Procedure: SMCs were cultured in 96-well plates from inocula of 1×10^5 cells in each well and incubated at 37° C. for 24 h in a culture medium free of any antibiotics. 1×10^5 cells E. coli was seeded in the SMC culture wells. Then CS-g-K16 was added in the SMC and E. coli co-culture wells at a concentration of 100 μg ml^−1. Wells without CS-g-K16 were used as a control. The co-culture was imaged using an inverted optical microscope (Carl Zeiss, Germany).

[13] = system: E. coli, P. aeruginosa, S. aureus, C. albicans, F. solani cells; assay: Morphology study of microorganisms (FESEM); assay type: cell-based; details: at MIC concentration, 15 min treatment, compared with intact controls
Procedure: After incubation the microbes were immediately fixed with glutaraldehyde (2.5%, 5 ml) solution for 4 hr. Following dehydration in a graded ethanol series (20%-100%) and drying under a nitrogen flow, the samples were coated with platinum and imaged with FESEM (JEOL JSM-6700F) for microbe morphology changes.

[14] = system: E. coli membrane; assay: Membrane depolarization, DiSC3(5) dye leakage; assay type: cell-based, Escherichia coli; details: 100 μg ml^−1
Procedure: Bacteria were harvested at mid-log phase, washed three times with a buffer solution of 20 mM glucose and 5 mM HEPES (pH 7.4). The bacteria was resuspended in the washing buffer with additional 0.1 M KCl, then incubated with DiSC3(5) (20 nM) until it was incorporated into the cell membrane. The CS-g-K16 was added at a concentration of 100 μg ml^−1, and the fluorescence was monitored with a fluorescence spectrometer (PerkinElmer LS55, U.S.) at λex=620 nm and λem=670 nm. Finally, 0.2 nM Gramicidin D was added to obtain the full release of the dye.

Compound | MIC E. coli [3] [µg/mL] | MIC F. solani [4] [µg/mL] | MIC S. aureus [5] [µg/mL] | MIC P. aeruginosa [6] [µg/mL] | MIC C. albicans [7] [µg/mL] | other results
CC[C@H](C)[C@H](NC(=O)CN)C(=O)NCC(=O)N[C@@H](C)C(=O)N[C@H](C(=O)N[C@@H](CC(C)C)C(=O)N[C@@H](CCCCN)C(=O)N[C@H](C(=O)N[C@@H](CC(C)C)C(=O)N[C@H](C(=O)N[C@H](C(=O)NCC(=O)N[C@@H](CC(C)C)C(=O)N1CCC[C@H]1C(=O)N[C@@H](C)C(=O)N[C@@H](CC(C)C)C(=O)N[C@H](C(=O)N[C@@H](CO)C(=O)N[C@@H](Cc1c[nH]c2ccccc12)C(=O)N[C@H](C(=O)N[C@@H](CCCCN)C(=O)N[C@@H](CCCNC(=N)N)C(=O)N[C@@H](CCCCN)C(=O)N[C@@H](CCCNC(=N)N)C(=O)N[C@@H](CCC(N)=O)C(=O)N[C@@H](CCC(N)=O)C(N)=O)[C@@H](C)CC)[C@@H](C)CC)[C@@H](C)O)[C@@H](C)O)C(C)C)C(C)C [Melittin] |  |  |  |  |  | MIC E. coli [1]: 13 µg/mL (≈ 4.57 µM); HC50 (the concentration which is 50% hemolytic) ([2]; comparator agents (#3A-#6E), previously reported): 2 µg/mL
Magainin-2 |  |  |  |  |  | MIC E. coli [1]: 125 µg/mL; HC50 (the concentration which is 50% hemolytic) [2]: >250 µg/mL
chitosan-graft-poly(lysine-ran-phenylalanine) [CS-g-K8F8] | >2500 | 160 | 2500 | >2500 | >2500 | MIC against the bacterial pathogens [8]: ≥ 2500 µg/mL; HC50 (the concentration which is 50% hemolytic) [9]: 12500 µg/mL
chitosan-graft-poly(lysine-ran-phenylalanine) [CS-g-K12.5F12.5] | 630 | 80 | 1250 | 1250 | 310 | increase of MICs compared with P(K12.5F12.5) (#5B) ([8]; for the three bacteria): more than 5 times; MIC against the bacterial pathogens [8]: ≥ 630 µg/mL; HC50 (the concentration which is 50% hemolytic) [9]: 7500 µg/mL
chitosan-graft-polylysine [CS-g-K1] | 80 | 40 | 160 | 80 | 40 | 
chitosan-graft-polylysine [CS-g-K3-HMW] | 80 | 40 | 160 | 310 | 160 | MICs relative to those of CS-g-K3 (#1B) ([10]; same grafting ratio of lysine, higher molecular weight chitosan, all five pathogens): ≥ 4 fold
chitosan-graft-polylysine [CS-g-K3] | 20 | 10 | 40 | 20 | 20 | 
chitosan-graft-polylysine [CS-g-K9] | 10 | 5 | 20 | 20 | 20 | MICs for all pathogens tested [10]: 5 to 20 µg/mL
chitosan-graft-polylysine [CS-g-K16] | 10 | 5 | 10 | 20 | 20 | bacterial viability by LIVE/DEAD stain (SYTO 9 / propidium iodide) [11]: renders E. coli cell membrane permeable to propidium iodide; bacterial growth and SMCs growth in co-culture [12]: inhibits the bacterial growth but permits SMCs growth; also recorded: bacteria were inhibited and SMCs grew well; MICs for all pathogens tested [10]: 5 to 20 µg/mL; MICs against Gram-negative and Gram-positive bacteria and fungi ([10]; range over all pathogens): 5-20 μml^−1; morphology of microbial cells (FESEM) [13]: exhibit obvious morphological changes; membrane potential sensitive dye DiSC3(5) leakage [14]: immediate fluorescence increase; HC50 compared with other state-of-the-art antimicrobial polymers [9]: 3 to 5 orders of magnitude; hemolytic percentage [9]: below 50%
chitosan-graft-polylysine [CS-g-K25] | 10 | 5 | 10 | 40 | 20 | 
